# In the OPERA property sets (Mansouri et al. 2018):
# Conditions: not given
Structure (SMILES),boiling point [°C],melting point [°C],log10 vapour pressure (mmHg),ready biodegradability,log10 Koa,log10 Henry constant (atm·m³/mol),log10 Koc (L/kg),log10 biodegradation half-life (days)
CCOC(=O)c1ccc(OC)cc1,270,7.5,,,,,,
O=C(O)COc1cccc(Cl)c1Cl,,174,,,,,,
Oc1ccc(Cl)cc1,220,42.7,-1.05,not readily biodegradable,,,,
CCOc1cccc(C=O)c1O,264,67,,,,,,
CCCCCCCCCCCCCCCC[N+](C)(C)C,,,,not readily biodegradable,,,,
CC12CCC(C1)C(C)(C)C2O (centres undefined),,,-1.2,,,,,
O=C(OCCO)c1ccc(C(=O)OCCO)cc1,,,,readily biodegradable,,,,
C1CCCCNCCC1,,-19,,,,,,
Clc1cc(Cl)c(-c2c(Cl)c(Cl)cc(Cl)c2Cl)cc1Cl,,,,,9.87,,,
C#CC(C)(C)O,104,3,1.2,,,-5.41,,
Nc1ccn([C@H]2CC[C@@H](CO)O2)c(=O)n1,,218,,,,,,
CC(/C=C/C=C(C)/C=C/[C@@]1(O)C(C)(C)CCC[C@@]1(C)O)=C\C=C\C=C(C)\C=C\C(=O)O,,213,,,,,,
CC(=O)NC(CCC(N)=O)C(=O)O (centres undefined),,197,,,,,,
CC(C)N(CCC(C(N)=O)(c1ccccc1)c1ccccn1)C(C)C (centres undefined),,94.8,,,,,,
COCCCNc1nc(NCCCOC)nc(SC)n1,,55,,,,,,
NC(=O)c1cnccn1,,192,,,,,,
BrC(Br)C(Br)Br,244,0,-1.7,not readily biodegradable,,,,
C=Cc1ccc(C(C)C)cc1,204,-44.7,,,,,,
COc1ccc(N(CCCC(=O)O)C(=O)c2ccc(Cl)cc2)cc1,,116,,,,,,
CC(C)=CCN=C(N)N,,62.5,,,,,,
CCCCCCCCCCCCCCCCCCNC(=O)[C@H](O)[C@@H](O)[C@H](O)[C@H](O)CO,,,,not readily biodegradable,,,,
Cc1cc(C)c(C)s1,164,,,,,,,
COC(C)(C)C,55.2,-109,2.4,not readily biodegradable,2.58,-3.23,,
CCOC(=O)c1cccnc1,224,8.5,,,,,,
CC(C)CC(C)O (centres undefined),132,-90,0.724,readily biodegradable,,-4.35,,
Cc1cc(C)cc(C(C)(C)C)c1,207,-18,,,,,,

Structure (SMILES),boiling point [°C],melting point [°C],log10 vapour pressure (mmHg),ready biodegradability,log10 Koa,log10 Henry constant (atm·m³/mol),log10 Koc (L/kg),log10 biodegradation half-life (days)
COc1ccc([N+](=O)[O-])cn1,,108,,,,,,
CC(=O)c1ccc(OCC(=O)O)cc1,,176,,,,,,
CC(C)=NNC(N)=S,,,,not readily biodegradable,,,,
c1ccc2c(c1)ccc1ccc3ccccc3c12,,68,,,,,,
CC[Si](Cl)(Cl)CC,,-96.5,,,,,,
CCCCOC(=O)CCCCCCCCC(=O)OCCCC,344,-10,-5.33,,,,,
CCCCCCCCCCCCCCCCCCCCCCCCCCCCCCCCCCCCCCCC,,82,,readily biodegradable,,,,
Ic1ccccc1I,287,27,,,,,,
COC(=O)CCCCCCCCCCC(=O)OC,,31.9,,,,,,
COC(=O)Cc1ccccc1,216,,,,,,,
Clc1cc(Cl)c(-c2c(Cl)ccc(Cl)c2Cl)cc1Cl,,,-5.07,,9.27,,5.79,
Nc1ccc(Cl)cc1[N+](=O)[O-],,116,,not readily biodegradable,,,,
NC(=O)c1ccccc1OCC(=O)O,,221,,,,,,
O=Cc1c[nH]c2ccccc12,,196,,,,,,
CN(C)C(=O)NC1CCCCCCC1,,138,,,,,,
CCC(Oc1ccc(C(C)(C)CC)cc1C(C)(C)CC)C(=O)Nc1ccc(NC(=O)C(F)(F)C(F)(F)C(F)(F)F)c(O)c1 (centres undefined),,,,not readily biodegradable,,,,
CCn1c2ccccc2c2ccccc21,,68,-3.66,,,,,
C=C(C)C,-6.9,-140,3.36,,,-0.662,,
CC[C@@H](CO)NC(=O)[C@@H]1C=C2c3cccc4[nH]cc(c34)C[C@H]2N(C)C1,,172,,,,,,
FC(F)(Cl)C(F)(Cl)Cl,47.7,-35,2.56,not readily biodegradable,,,,
Cc1ccc(NC(=S)Nc2ccc(C)cc2)cc1,,183,,,,,,
Cc1cccc(C)c1[N+](=O)[O-],226,15,,,,,,
CC(CCl)CCl,136,,,,,,,
CC(C)CON=O,67,,,,,,,
Cc1ccc2ccccc2n1,246,-1.5,-2.02,,,,,
CC1(C)CC(O)CC(C)(CN)C1 (centres undefined),265,45.5,,,,,,

Structure (SMILES),boiling point [°C],melting point [°C],log10 vapour pressure (mmHg),ready biodegradability,log10 Koa,log10 Henry constant (atm·m³/mol),log10 Koc (L/kg),log10 biodegradation half-life (days)
C[C@H](N[C@H](CCc1ccccc1)C(=O)O)C(=O)N1CCC[C@H]1C(=O)O,,150,,,,,,
CC#Cc1cc(C)nc(Nc2ccccc2)n1,,133,-6.76,,,,,
CCCCC(=O)OCC(C)C,179,,,,,,,
CCC(C)C(CC)CC (centres undefined),140,,,,,,,
CN(C)c1ccc(/N=N/c2ccccc2C(=O)O)cc1,,183,,,,,,
Cc1ccc(C)[nH]1,171,7.7,-0.0942,,,,,
CCCC#CCCCC(=O)O,,-3,,,,,,
Clc1cc(Cl)c2c(oc3ccc(Cl)c(Cl)c32)c1Cl,,210,,,,,,
CC(C)S(=O)(=O)O,,-37,,,,,,
O=C1NC(=O)C(c2ccccc2)(c2ccccc2)N1,,296,,not readily biodegradable,,,,
Cc1cccc(N(C)C)c1,212,,,,,,,
CCCCCCN1CCCC1=O,,4,,,,,,
C=CC(OCC)OCC,124,,,,,,,
CCCCCCCCCCCC(=O)OCCOCCO,,17.5,,,,,,
CCc1cccc(C)c1C,194,-49.5,-0.206,,,,,0.778
CCn1c2ccccc2c2cc(N)ccc21,,99,,,,,,
C#CCCCCCCCC#C,,-17,,,,,,
COC(C)OC,64.5,-113,2.23,,,,,
CCCCCCCCCCCCCCCCC=O,,36,,,,,,
N#CCC=CCC#N,,76,-2.16,,,,,
CC(=O)Nc1ccc(OC(=O)c2ccccc2OC(C)=O)cc1,,175,,,,,,
CC(=O)c1cccc(C(F)(F)F)c1,199,,,,,,,
Clc1ccc2ccc(Cl)nc2c1,,120,,,,,,
C=C[C@H]1C[N@@]2CC[C@H]1C[C@H]2[C@H](O)c1ccnc2ccc(O)cc12,,202,,,,,,
CCCCCCCCCCCCCCC(=O)OC,,18.5,-3.79,,,,,
O=[N+]([O-])c1ccc2c3c(cccc13)CC2,,100,,,,,,

Structure (SMILES),boiling point [°C],melting point [°C],log10 vapour pressure (mmHg),ready biodegradability,log10 Koa,log10 Henry constant (atm·m³/mol),log10 Koc (L/kg),log10 biodegradation half-life (days)
C[C@H](CCC(=O)O)[C@H]1CC[C@H]2[C@@H]3C(=O)C[C@@H]4CC(=O)CC[C@]4(C)[C@H]3CC(=O)[C@]12C,,237,,,,,,
CC1=CC(=O)CC(C)(C)C1,215,-8.1,-0.358,readily biodegradable,,,1.4,
O=C(Nc1ccc(Cl)cc1)c1cc(Cl)cc(Cl)c1O,,142,,,,,,
c1ccc(NC2CCCCC2)cc1,279,16,,,,,,
Cc1cccc2ccc3ccccc3c12,,53.5,,,,,,
CN1CCCc2ccccc21,246,,,,,,,
Nc1ccc(O)cc1,284,188,-4.4,readily biodegradable,,,,
ICc1ccccc1,,24.5,-0.903,,,,,
COc1ccc2c(c1)CC[C@@H]1[C@@H]2CC[C@]2(C)[C@@H](O)[C@H](O)C[C@@H]12,,159,,,,,,
ClCCCI,171,,,,,,,
CC1NC(C)SC(C)S1 (centres undefined),,46,,,,,,
CCCCCC(C)C,118,-109,1.32,,,,,0.477
Cc1cc(C)c(O)c(C)c1C,240,80.5,,,,,,
O=C1c2ccccc2C(=O)c2c(O)c(O)cc(O)c21,,259,,,,,,
CC(C)(O)c1ccccc1,202,36,,,,,,
CC(C)COC(=O)c1ccccc1O,261,5.9,,,,,,
CC1CNCCN1 (centres undefined),153,62,,,,,,
CCc1ccc([N+](=O)[O-])cc1,246,-12.3,,,,,,
CC1CCOC1 (centres undefined),86.5,,,,,,,
CCCC[Si](C)(C)Cl,139,,,,,,,
O=C(O)c1ccnc2ccccc12,,254,,,,,,
C=Cc1ccccc1,145,-31,0.806,readily biodegradable,,-2.56,2.96,
NCCN1CCOCC1,205,25.6,,,,,,
CC=CC(C)(C)O,112,,,,,,,
O=C(O)CSc1ccccc1,,65,,,,,,

# Same assay, conditions: fish
Structure (SMILES),log10 BCF,log10 biotransformation half-life (days)
Oc1ccc(Cl)cc1,1.48,-0.41
Clc1cc(Cl)c(-c2c(Cl)c(Cl)cc(Cl)c2Cl)cc1Cl,,2.45
BrC(Br)C(Br)Br,0.74,
COC(C)(C)C,0.18,-0.88
Clc1cc(Cl)c(-c2c(Cl)c(Cl)c(Cl)c(Cl)c2Cl)c(Cl)c1Cl,,2.66
CC(=CC(C)(C)C)CC(C)(C)C,,0.7
Nc1ccc(Cl)cc1[N+](=O)[O-],1.04,-0.96
FC(F)(Cl)C(F)(Cl)Cl,1.7,
Cc1cc(C)c2ccccc2c1,,0.51
CC1=CC(=O)CC(C)(C)C1,0.3,-1.29
Clc1cc(-c2cc(Cl)c(Cl)c(Cl)c2)cc(Cl)c1Cl,5.97,
C=Cc1ccccc1,1.13,
